Results published in patent US9273057B2 (Bristol-Myers Squibb Company, priority 2012, dated 2016).
pIC50: −log10 of the molar value. Where a name gives a salt, the structure may show the parent alone.

Biological target: CK2A1 (CK2α/β) (Homo sapiens, UniProt P68400)
Experiment: CK2 kinase assay, CK2A1 (CK2α/β)
Format: biochemical
Conditions: Table A; read-out: CK2A1 (CK2α/β) (IC50)

Chain of CK2A1 (CK2α/β) (P68400 whole entry, species assumed): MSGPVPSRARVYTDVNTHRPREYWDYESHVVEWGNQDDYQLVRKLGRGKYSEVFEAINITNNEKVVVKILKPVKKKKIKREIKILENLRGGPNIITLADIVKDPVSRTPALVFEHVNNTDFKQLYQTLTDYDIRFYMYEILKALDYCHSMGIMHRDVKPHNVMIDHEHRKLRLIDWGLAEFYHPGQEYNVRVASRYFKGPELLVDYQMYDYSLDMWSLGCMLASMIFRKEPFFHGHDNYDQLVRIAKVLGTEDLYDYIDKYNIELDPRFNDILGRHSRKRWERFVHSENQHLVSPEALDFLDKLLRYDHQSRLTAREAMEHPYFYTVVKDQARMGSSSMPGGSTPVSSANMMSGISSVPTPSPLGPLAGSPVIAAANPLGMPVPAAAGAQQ
Chain of CK2A1 (CK2α/β) (P67870 whole entry partner, species assumed): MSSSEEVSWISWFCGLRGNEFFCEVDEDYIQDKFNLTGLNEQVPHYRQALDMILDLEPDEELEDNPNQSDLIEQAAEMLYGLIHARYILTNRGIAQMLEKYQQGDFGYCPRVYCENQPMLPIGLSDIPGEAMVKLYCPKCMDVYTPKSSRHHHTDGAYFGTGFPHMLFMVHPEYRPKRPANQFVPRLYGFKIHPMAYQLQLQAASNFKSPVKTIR

Row | pIC50 | Structure (SMILES)
1 | 9.24 | COC1CCN(C2CN(c3cc(C#N)cc(Nc4nc(NC5CC5)c5ncc(C#N)n5n4)c3Cl)C2)CC1 [Example 164]
2 | 8.17 | N#Cc1cc(Nc2nc(NC3CC3)c3ncc(C#N)n3n2)c(Cl)c(C(O)C2CN(C3COC3)C2)c1 (stereo not shown) [Example 656, 2-((2-chloro-5-cyano-3-(hydroxy(1-(oxetan-3-yl)azetidin-3-yl)methyl)phenyl)amino)-4-(cyclopropylamino)imidazo[2,1-f][1,2,4]triazine-7-carbonitrile]
3 | 8.74 | CC(C)(O)CN[C@@H]1CCCN(c2cc(C#N)cc(Nc3nc(NC4CC4)c4ncc(C#N)n4n3)c2Cl)C1 [Example 43, 2-((2-chloro-5-cyano-3-((3R)-3-((2-hydroxy-2-methylpropyl)amino)-1-piperidinyl)phenyl)amino)-4-(cyclopropylamino)imidazo [2,1-f][1,2,4]triazine-7-carbonitrile]
4 | 8.91 | N#Cc1cc(Nc2nc(NC3CC3)c3ncc(C#N)n3n2)c(Cl)c(N2CCN([C@H]3C[C@@H](C#N)C3)CC2)c1 [Example 106]
5 | 9.10 | N#Cc1cc(Nc2nc(NC3CC3)c3ncc(C#N)n3n2)c(F)c(N2CCN(C3COC3)CC2)c1 [Example 548, 2-((5-cyano-2-fluoro-3-(4-(oxetan-3-yl)piperazin-1-yl)phenyl)amino)-4-(cyclopropylamino)imidazo[2,1-f][1,2,4]triazine-7-carbonitrile]
6 | 9.11 | CC(C)(O)CNC1CCN(c2cc(C#N)cc(Nc3nc(NC4CC4)c4ncc(C#N)n4n3)c2Cl)CC1 [Example 143, 2-((2-chloro-5-cyano-3-(4-((2-hydroxy-2-methylpropyl)amino)-1-piperidinyl)phenyl)amino)-4-(cyclopropylamino)imidazo [2,1-f][1,2,4]triazine-7-carbonitrile]
7 | 8.22 | CCNc1nc(Nc2cc(C#N)cc(N3CC[C@@H](NC(=O)OC)[C@H](OC(=O)C[C@H]4CC[C@H](N)CC4)C3)c2Cl)nn2c(C#N)cnc12 [Example 820, (3R,4R)-1-(2-chloro-5-cyano-3-((7-cyano-4-(ethylamino)imidazo[2,1-f][1,2,4]triazin-2-yl)amino)phenyl)-4-((methoxycarbonyl)amino)piperidin-3-yl 2-((1r,4R)-4-aminocyclohexyl)acetate hydrochloride]
8 | 9.17 | N#Cc1cnc2c(NC3CC3)nc(Nc3cc(C(F)F)cc(NCC(O)CO)c3Cl)nn12 (stereo not shown) [Example 254, 2-((2-chloro-5-(difluoromethyl)-3-((2,3-dihydroxypropyl)amino)phenyl)amino)-4-(cyclopropylamino)imidazo[2,1-f][1,2,4]triazine-7-carbonitrile]
9 | 8.53 | COC(=O)N[C@H]1CCN(c2cc(C#N)cc(Nc3nc(NC4CC4)c4ncc(C#N)n4n3)c2Cl)C[C@H]1NC1(C)COC1 [Example 754, methyl N-[(3R,4S)-1-(2-chloro-5-cyano-3-{[7-cyano-4-(cyclopropylamino)imidazo [2,1-f][1,2,4]triazin-2-yl]amino}phenyl)-3-[(3-methyloxetan-3-yl)amino]piperidin-4-yl]carbamate]
10 | 8.39 | CCNc1nc(-n2cc([C@H]3C[C@@H]3CN(C)C)c3ccc(C#N)cc32)nn2c(C#N)cnc12 (single isomer, unassigned) [Example 774]
11 | 8.52 | COC(=O)N[C@H]1CN(C2CN(c3cc(C#N)cc(Nc4nc(NC5CC5)c5ncc(C#N)n5n4)c3Cl)C2)C[C@@H]1OC (racemic) [Example 297, (+/−) methyl ((3S,4S)-1-(1-(2-chloro-5-cyano-3-((7-cyano-4-(cyclopropylamino)imidazo[2,1-f][1,2,4]triazin-2-yl)amino)phenyl)-3-azetidinyl)-4-methoxy-3-pyrrolidinyl)carbamate]
12 | 9.23 | N#Cc1cc(Nc2nc(NC3CC3)c3ncc(C#N)n3n2)c(Cl)c(N2CCN([C@@H]3COC[C@H]3O)CC2)c1 (racemic) [Example 59, (+/−) 2-((2-chloro-5-cyano-3-(4-((3R,4S)-4-hydroxytetrahydro-3-furanyl)-1-piperazinyl)phenyl)amino)-4-(cyclopropylamino) imidazo[2,1-f][1,2,4] triazine-7-carbonitrile]
13 | 8.74 | CN1CC2(CCN(c3cc(C#N)cc(Nc4nc(NC5CC5)c5ncc(C#N)n5n4)c3Cl)CC2)C1 [Example 798, 2-((2-chloro-5-cyano-3-(2-methyl-2,7-diazaspiro[3.5]nonan-7-yl)phenyl)amino)-4-(cyclopropylamino)imidazo[2,1-f][1,2,4]triazine-7-carbonitrile]
14 | 8.42 | CCNc1nc(Nc2cc(C#N)cc(N3CC[C@@H](NC(=O)OC)[C@H](OC(=O)[C@@H](N)[C@@H](C)O)C3)c2Cl)nn2c(C#N)cnc12 [Example 810, (2S,3R)-(3R,4R)-1-(2-chloro-5-cyano-3-((7-cyano-4-(ethylamino)imidazo[2,1-f][1,2,4]triazin-2-yl)amino)phenyl)-4-((methoxycarbonyl)amino)piperidin-3-yl 2-amino-3-hydroxybutanoate hydrochloride]
15 | 8.74 | N#Cc1cc(Nc2nc(NC3CC3)c3ncc(C#N)n3n2)c(Cl)c(N2CCN(C(=O)C3CNC(=O)N3)CC2)c1 (racemic) [Example 81, (+/−)2-((2-chloro-5-cyano-3-(4-((2-oxo-4-imidazolidinyl)carbonyl)-1-piperazinyl)phenyl)amino)-4-(cyclopropylamino) imidazo[2,1-f][1,2,4] triazine-7-carbonitrile]
16 | 9.29 | CC1(N)CCN(c2cc(C(F)F)cc(Nc3nc(NC4CC4)c4ncc(C#N)n4n3)c2Cl)CC1 [Example 245, 2-((3-(4-amino-4-methyl-1-piperidinyl)-2-chloro-5-(difluoromethyl)phenyl)amino)-4-(cyclopropylamino)imidazo[2,1-f][1,2,4]triazine-7-carbonitrile]
17 | 8.91 | CC(c1cc(C#N)cc(Nc2nc(NC3CC3)c3ncc(C#N)n3n2)c1Cl)N1CCNC(=O)C1 (racemic) [Example 679, (+/−)-2-((2-chloro-5-cyano-3-(1-(3-oxopiperazin-1-yl)ethyl)phenyl)amino)-4-(cyclopropylamino)imidazo[2,1-f][1,2,4]triazine-7-carbonitrile]
18 | 8.51 | CC(C)(O)[C@H](F)CNC1CCN(c2cc(C#N)cc(Nc3nc(NC4CC4)c4ncc(C#N)n4n3)c2Cl)CC1 [Example 137, 2-((2-chloro-5-cyano-3-(4-(((2R)-2-fluoro-3-hydroxy-3-methylbutyl)amino)-1-piperidinyI)phenyl)amino)-4-(cyclopropylamino)imidazo [2,1-f][1,2,4]triazine-7-carbonitrile]
19 | 8.53 | CC(=O)N1CC(N2CCN(c3cc(C(F)F)cc(Nc4nc(NC5CC5)c5ncc(C#N)n5n4)c3Cl)CC2)C1 [Example 266, 2-((3-(4-(1-acetyl-3-azetidinyl)-1-piperazinyl)-2-chloro-5-(difluoromethyl)phenyl)amino)-4-(cyclopropylamino)imidazo[2,1-f][1,2,4]triazine-7-carbonitrile]
20 | 9.12 | CCNc1nc(Nc2ccc3c(c2)c(C#N)cn3C2CCN([C@H]3COC[C@@H]3O)CC2)nn2c(C#N)cnc12 [Example 827, 2-((3-cyano-1-(1-((3S,4R)-4-hydroxytetrahydrofuran-3-yl)piperidin-4-yl)-1H-indol-5-yl)amino)-4-(ethylamino)imidazo[2,1-f][1,2,4]triazine-7-carbonitrile]
21 | 9.21 | N#Cc1cc(Nc2nc(NC3CC3)c3ncc(C#N)n3n2)c(OCCN2CCOCC2)cc1F [Example 421, 2-((5-cyano-4-fluoro-2-(2-morpholinoethoxy)phenyl)amino)-4-(cyclopropylamino)imidazo[2,1-f][1,2,4]triazine-7-carbonitrile]
22 | 8.77 | CC(C)(C)N1CCN(Cc2cc(C#N)cc(Nc3nc(NC4CC4)c4ncc(C#N)n4n3)c2Cl)CC1 [Example 472, 2-((3-[(4-tert-butylpiperazin-1-yl)methyl]-2-chloro-5-cyanophenyl}amino)-4-(cyclopropylamino)imidazo[2,1-f][1,2,4]triazine-7-carbonitrile]
23 | 7.35 | CN1CC(N(C)C2CCN(c3cc(C#N)cc(Nc4nc(NC5CC5)c5ncc(C#N)n5n4)c3Cl)CC2)CC1=O (stereo not shown) [Example 714, 2-((2-Chloro-5-cyano-3-(4-(methyl(1-methyl-5-oxopyrrolidin-3-yl)amino)piperidin-1-yl)phenyl)amino)-4-(cyclopropylamino)imidazo[2,1-f][1,2,4]triazine-7-carbonitrile]
24 | 9.14 | CC(O)C(=O)N1CC(N2CCN(c3cc(C#N)cc(Nc4nc(NC5CC5)c5ncc(C#N)n5n4)c3Cl)CC2)C1 (stereo not shown) [Example 487, 2-[(2-chloro-5-cyano-3-{4-[1-(2-hydroxypropanoyl)azetidin-3-yl]piperazin-1-yl}phenyl)amino]-4-(cyclopropylamino)imidazo[2,1-f][1,2,4]triazine-7-carbonitrile]
25 | 9.08 | N#Cc1cc(Nc2nc(NC3CC3)c3ncc(C#N)n3n2)c(Cl)c(N2CCCOC2=O)c1 [Example 627, 2-((2-chloro-5-cyano-3-(2-oxo-1,3-oxazinan-3-yl)phenyl)amino)-4-(cyclopropylamino)imidazo[2,1-f][1,2,4]triazine-7-carbonitrile]
26 | 9.32 | N#Cc1cc(Nc2nc(NC3CC3)c3ncc(C#N)n3n2)c(Cl)c(N2CC(N3CCC(O)C3)C2)c1 (racemic) [Example 159, (+/−) 2-((2-chloro-5-cyano-3-(3-(3-hydroxy-1-pyrrolidinyl)-1-azetidinyl)phenyl)amino)-4-(cyclopropylamino)imidazo [2,1-f][1,2,4]triazine-7-carbonitrile]
27 | 9.10 | CCNc1nc(Nc2cc(C#N)cc(N3CC[C@@H](NC(=O)OC)[C@H](OCOP(=O)(O)O)C3)c2Cl)nn2c(C#N)cnc12 [Example 345, sodium (((3R,4R)-1-(2-chloro-5-cyano-3-((7-cyano-4-(ethylamino)imidazo[2,1-f][1,2,4]triazin-2-yl)amino)phenyl)-4-((methoxycarbonyl)amino)piperidin-3-yl)oxy)methyl phosphate]
28 | 9.26 | CC1(N)CCN(c2cc(C#N)cc(Nc3nc(NC4CC4)c4ncc(C#N)n4n3)c2Cl)CC1 [Example 18, 2-((3-(4-amino-4-methyl-1-piperidinyl)-2-chloro-5-cyanophenyl)amino)-4-(cyclopropylamino)imidazo [2,1-f][1,2,4]triazine-7-carbonitrile]
